Patent US4434171A, “Dibenzazepine derivatives, pharmaceutical compositions containing them, and pharmaceutical methods using them” (Sandoz Ltd., priority 1980, dated 1984)

Tests used:
[1] = system: spontaneous motor activity in male mice; assay: inhibition of spontaneous motor activity in male mice (Caviezel and Baillod); type: in vivo, mouse; settings: p.o.
Description: In particular, the compounds of the invention are useful as neuroleptic agents in the treatment of e.g. psychotic disturbances such as schizophrenia, as indicated in standard tests, e.g. by an inhibition of spontaneous motor activity in male mice on p.o. administration of from about 1 to about 50 mg/kg animal body weight of the compounds e.g. in accordance with the principles of Caviezel and Baillod (Pharm. Acta Helv. (1958), 33, 465-484).

[2] = molecular target: T1, 3H-Spiperone receptors (Bos taurus, UniProt P20288); assay: binding to 3H-Spiperone receptors, modified test from J. Leysen et al.; settings: calf brain striatal tissue; 0.1 nM 3H-Spiperone; 5×10^-7 M Cinanserin; pH 7.7; 40 min at room temperature; read-out: IC50 in the neuroleptic test from J. Leysen (inhibition of specific Spiperone binding)
T1 construct: Fresh calf brain striatal tissue is homogenized; from tissue; host or cells: calf brain striatum membranes
T1 sequence (P20288 whole entry): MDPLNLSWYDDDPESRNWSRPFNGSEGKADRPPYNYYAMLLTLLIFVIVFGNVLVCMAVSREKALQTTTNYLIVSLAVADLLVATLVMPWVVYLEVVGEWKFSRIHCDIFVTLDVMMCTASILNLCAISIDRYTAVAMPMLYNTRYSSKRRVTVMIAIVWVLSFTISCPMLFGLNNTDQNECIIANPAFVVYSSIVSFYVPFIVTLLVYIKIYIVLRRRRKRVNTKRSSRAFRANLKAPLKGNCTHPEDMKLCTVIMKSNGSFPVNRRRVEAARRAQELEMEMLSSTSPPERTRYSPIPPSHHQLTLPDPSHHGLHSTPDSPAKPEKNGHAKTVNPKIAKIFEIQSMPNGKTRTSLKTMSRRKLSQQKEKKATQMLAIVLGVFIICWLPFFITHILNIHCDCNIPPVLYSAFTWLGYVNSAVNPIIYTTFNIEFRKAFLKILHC
Description: Fresh calf brain striatal tissue is homogenized in a 25 fold volume of Tris buffer (50 mM, pH 7.7, 120 mM sodium chloride) and centrifuged. The pellets are resuspended in a 22 fold volume of the Tris buffer, incubated for 15 min. at 37° C., recentrifuged and the pellets resuspended in a 300 fold volume of the Tris buffer. […] After incubation for 40 min. at room temperature, the assay mixtures are rapidly filtered through Whatman GF/B filters and washed twice with 5 ml of ice cold Tris buffer and then scintillation-counted.

SMILES: CN1CCC(N2Cc3cc(Cl)ccc3Cc3ccccc32)CC1 [Example 1, 8-Chloro-5,6-dihydro-5-(1-methyl-4-piperidinyl)-11H-dibenz[b,e]azepine]
- activity in inhibiting spontaneous motor activity, compared with Clozapine [1]: comparable to that of Clozapine
- IC50 [2]: 100 nM
